Assay results published in the SangsterLogP compilation.

assay: method code SF-AS, from PMID: 9631499

`Cc1ccc(-c2nnc(CCON=Cc3ccc(Cl)cc3)[nH]2)cc1` and `Cc1cccc(-c2nnc(CCON=Cc3ccc(Cl)cc3)[nH]2)c1` are the same in logP: 3.39 for the first, 3.39 for the second.

First: Clc1ccc(C=NOCCc2nnc(-c3ccccc3)o2)c(Cl)c1
Second: Cc1cccc(-c2nnc(CCON=Cc3ccc(Cl)cc3Cl)o2)c1
The logP of the first is lower: 3.72 for the first, 4.28 for the second.

First: Clc1ccc(C=NOCCc2nnc(-c3ccccc3)o2)cc1
Second: Cc1ccc(-c2nnc(CCON=Cc3ccc(Cl)cc3)o2)cc1
The logP of the first is lower: 3.01 for the first, 3.57 for the second.

First: Cc1ccc(C=NOCCc2nnc(-c3cccc(C)c3)o2)cc1
Second: Cc1ccc(-c2nnc(CCON=Cc3ccc(Cl)cc3Cl)o2)cc1
The logP of the first is lower: 3.57 for the first, 4.28 for the second.

First: Clc1ccc(C=NOCCc2nnc(-c3ccccc3)[nH]2)cc1
Second: Cc1ccc(-c2nnc(CCON=Cc3ccc(Cl)cc3Cl)[nH]2)cc1
The logP of the first is lower: 2.83 for the first, 4.1 for the second.

With `Cc1cccc(-c2nnc(CCON=Cc3ccc(Cl)cc3Cl)[nH]2)c1` the logP was 4.1.
